Source: patent US9440956B2, “Indole, indazole and benzimidazole arylamides as P2X3 and P2X2/3 antagonists” (Roche Palo Alto LLC, priority 2010, dated 2016)

Key:
rat P2X3 receptor = target: T1, rat P2X3 receptor (Rattus norvegicus, UniProt P49654); experiment: P2X3 FLIPR (Fluorometric Imaging Plate Reader) assay; assay type: cell-based; conditions: CHO-K1 cells transfected with cloned rat P2X3; agonist α,β-meATP 1 μM; Fluo-3 calcium fluorescence
T1 construct: expressed in transfected cells; host or cells: CHO-K1
T1 sequence (P49654 1-397): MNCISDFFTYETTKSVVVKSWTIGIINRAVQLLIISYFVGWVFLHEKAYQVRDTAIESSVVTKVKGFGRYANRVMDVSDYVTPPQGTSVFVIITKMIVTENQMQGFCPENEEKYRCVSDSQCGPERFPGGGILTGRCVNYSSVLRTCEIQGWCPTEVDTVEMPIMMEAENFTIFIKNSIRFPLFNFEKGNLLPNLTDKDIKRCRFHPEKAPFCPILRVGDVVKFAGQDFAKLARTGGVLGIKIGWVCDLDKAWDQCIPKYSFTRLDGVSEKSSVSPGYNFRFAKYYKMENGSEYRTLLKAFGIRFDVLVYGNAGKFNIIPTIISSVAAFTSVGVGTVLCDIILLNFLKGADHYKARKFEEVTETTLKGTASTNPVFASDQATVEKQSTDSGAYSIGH
Method: (§1) P2X3/P2X2/3 FLIPR (Fluorometric Imaging Plate Reader) Assay
(§2) CHO-K1 cells were transfected with cloned rat P2X3 or human P2X2/3 receptor subunits and passaged in flasks. 18-24 hours before the FLIPR experiment, cells were released from their flasks, centrifuged, and resuspended in nutrient medium at 2.5×10^5 cells/ml. The cells were aliquoted into black-walled 96-well plates at a density of 50,000 cells/well and incubated overnight in 5% CO2 at 37° C. On the day of the experiment, cells were washed in FLIPR buffer (calcium- and magnesium-free Hank's balanced salt solution, 10 mM HEPES, 2 mM CaCl2, 2.5 mM probenecid; FB). Each well received 100 μl FB and 100 μl of the fluorescent dye Fluo-3 AM [2 μM final conc.]. After a 1 hour dye loading incubation at 37° C., the cells were washed 4 times with FB, and a final 75 μl/well FB was left in each well.
(§3) Test compounds (dissolved in DMSO at 10 mM and serially diluted with FB) or vehicle were added to each well (25 μl of a 4× solution) and allowed to equilibrate for 20 minutes at room temperature. The plates were then placed in the FLIPR and a baseline fluorescence measurement (excitation at 488 nm and emission at 510-570 nm) was obtained for 10 seconds before a 100 μl/well agonist or vehicle addition. The agonist was a 2× solution of α,β-meATP producing a final concentration of 1 μM (P2X3) or 5 μM (P2X2/3). Fluorescence was measured for an additional 2 minutes at 1 second intervals after agonist addition. A final addition of ionomycin (5 μM, final concentration) was made to each well of the FLIPR test plate to establish cell viability and maximum fluorescence of dye-bound cytosolic calcium. Peak fluorescence in response to the addition of α,β-meATP (in the absence and presence of test compounds) was measured and inhibition curves generated using nonlinear regression. PPADS, a standard P2X antagonist, was used as a positive control.

human P2X2/3 receptor = target: T2, human P2X2/3 receptor (Homo sapiens, UniProt P56373+Q9UBL9); experiment: P2X2/3 FLIPR (Fluorometric Imaging Plate Reader) assay; assay type: cell-based; conditions: CHO-K1 cells transfected with human P2X2/3; agonist α,β-meATP 5 μM; Fluo-3 calcium fluorescence
T2 construct: expressed in transfected cells; host or cells: CHO-K1
T2 sequence (Q9UBL9 1-471): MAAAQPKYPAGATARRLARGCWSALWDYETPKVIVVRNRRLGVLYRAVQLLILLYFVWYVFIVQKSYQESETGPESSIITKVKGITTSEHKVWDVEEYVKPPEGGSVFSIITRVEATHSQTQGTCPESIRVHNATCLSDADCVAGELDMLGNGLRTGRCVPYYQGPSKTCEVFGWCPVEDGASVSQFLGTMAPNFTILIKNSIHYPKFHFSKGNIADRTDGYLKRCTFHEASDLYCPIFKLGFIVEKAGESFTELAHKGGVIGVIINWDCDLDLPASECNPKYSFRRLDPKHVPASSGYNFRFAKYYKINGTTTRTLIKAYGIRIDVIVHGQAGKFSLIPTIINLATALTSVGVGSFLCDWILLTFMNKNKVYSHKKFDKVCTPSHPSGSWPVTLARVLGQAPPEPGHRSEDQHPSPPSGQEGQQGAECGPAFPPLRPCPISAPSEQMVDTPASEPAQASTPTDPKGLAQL
T2 sequence (P56373 1-397): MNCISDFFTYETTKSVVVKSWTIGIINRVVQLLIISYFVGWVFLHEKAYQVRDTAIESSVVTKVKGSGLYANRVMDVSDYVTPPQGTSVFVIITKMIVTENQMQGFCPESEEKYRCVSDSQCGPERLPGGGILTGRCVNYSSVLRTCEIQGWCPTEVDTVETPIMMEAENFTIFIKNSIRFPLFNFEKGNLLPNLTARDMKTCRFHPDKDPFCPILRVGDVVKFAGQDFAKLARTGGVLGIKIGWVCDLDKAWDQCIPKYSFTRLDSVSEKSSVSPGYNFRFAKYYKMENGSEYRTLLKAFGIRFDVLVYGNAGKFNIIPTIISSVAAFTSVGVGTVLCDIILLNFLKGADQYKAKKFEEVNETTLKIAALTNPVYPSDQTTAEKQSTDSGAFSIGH
Method: as §1, §2, §3

Row | SMILES | pKi P2X3 (rat P2X3 receptor) | pKi P2X2/3 (human P2X2/3 receptor)
1 | Cc1ccc(-c2cc(C(=O)NCc3cnc(C)cn3)cc3c2cnn3CC(C)C)nc1 [Compound 1, 1-Isobutyl-4-(5-methyl-pyridin-2-yl)-1H-indazole-6-carboxylic acid (5-methyl-pyrazin-2-ylmethyl)-amide] | 7.3 | 5.78
2 | CCCCn1ncc2c(-c3ccc(C)cn3)cc(C(=O)NCc3cnc(C)cn3)cc21 [Compound 2, 1-Butyl-4-(5-methyl-pyridin-2-yl)-1H-indazole-6-carboxylic acid (5-methyl-pyrazin-2-ylmethyl)-amide] | 7.38 | 6.34
3 | CCCCn1ncc2c(-c3ccc(C)cn3)cc(C(=O)N[C@@H](C)CO)cc21 [Compound 3, 1-Butyl-4-(5-methyl-pyridin-2-yl)-1H-indazole-6-carboxylic acid ((S)-2-hydroxy-1-methyl-ethyl)-amide] | 6.31 | 
4 | Cc1ccc(-c2cc(C(=O)NCc3cnc(C)cn3)cc3c2cnn3C(C)C)nc1 [Compound 4, 1-Isopropyl-4-(5-methyl-pyridin-2-yl)-1H-indazole-6-carboxylic acid (5-methyl-pyrazin-2-ylmethyl)-amide] | 6.58 | 4.92
5 | Cc1ccc(-c2cc(C(=O)N[C@@H](C)CO)cc3c2cnn3C(C)C)nc1 [Compound 5, 1-Isopropyl-4-(5-methyl-pyridin-2-yl)-1H-indazole-6-carboxylic acid ((S)-2-hydroxy-1-methyl-ethyl)-amide] |  | 5
6 | COCCn1ncc2c(-c3ccc(C)cn3)cc(C(=O)NCc3cnc(C)cn3)cc21 [Compound 6, 1-(2-Methoxy-ethyl)-4-(5-methyl-pyridin-2-yl)-1H-indazole-6-carboxylic acid (5-methyl-pyrazin-2-ylmethyl)-amide] | 5.51 | 5
7 | Cc1ccc(-c2cc(C(=O)NCc3cnc(C)cn3)cc3c2cnn3CCC(C)C)nc1 [Compound 7, 1-(3-Methyl-buty)-4-(5-methyl-pyridin-2-yl)-1H-indazole-6-carboxylic acid (5-methyl-pyrazin-2-ylmethyl)-amide] | 7.47 | 6.17
8 | Cc1ccc(-c2cc(C(=O)NCc3ccc(C)nn3)cc3c2cnn3CCC(C)C)nc1 [Compound 8, 1-(3-Methyl-butyl)-4-(5-methyl-pyridin-2-yl)-1H-indazole-6-carboxylic acid (6-methyl-pyridazin-3-ylmethyl)-amide] | 7.66 | 6.23
9 | Cc1ccc(-c2cc(C(=O)NCc3cnc(C)cn3)cc3c2cnn3Cc2ccccc2)nc1 [Compound 9, 1-Benzyl-4-(5-methyl-pyridin-2-yl)-1H-indazole-6-carboxylic acid (5-methyl-pyrazin-2-ylmethyl)-amide] | 7.25 | 6.25
10 | Cc1ccc(-c2cc(C(=O)N[C@@H](C)CO)cc3c2cnn3Cc2ccccc2)nc1 [Compound 10, 1-Benzyl-4-(5-methyl-pyridin-2-yl)-1H-indazole-6-carboxylic acid ((S)-2-hydroxy-1-methyl-ethyl)-amide] | 6.2 | 5.61
11 | Cc1ccc(-c2cc(C(=O)NCc3ccc(C)nn3)cc3c2cnn3Cc2ccccc2)nc1 [Compound 11, 1-Benzyl-4-(5-methyl-pyridin-2-yl)-1H-indazole-6-carboxylic acid (6-methyl-pyridazin-3-ylmethyl)-amide] | 7.62 | 6.56
12 | Cc1ccc(-c2cc(C(=O)NCc3cnc(C)cn3)cc3c2cnn3CC(F)(F)F)nc1 [Compound 12, 4-(5-Methyl-pyridin-2-yl)-1-(2,2,2-trifluoro-ethyl)-1H-indazole-6-carboxylic acid (5-methyl-pyrazin-2-ylmethyl)-amide] | 6.52 | 5.7
13 | Cc1ccc(-c2cc(C(=O)NCc3ccc(C)nn3)cc3c2cnn3CC(F)(F)F)nc1 [Compound 13, 4-(5-Methyl-pyridin-2-yl)-1-(2,2,2-trifluoro-ethyl)-1H-indazole-6-carboxylic acid (6-methyl-pyridazin-3-ylmethyl)-amide] | 7.19 | 6.51
14 | Cc1ccc(-c2cc(C(=O)NCc3cnc(C)cn3)cc3c2cnn3-c2ccccc2)nc1 [Compound 14, 4-(5-Methyl-pyridin-2-yl)-1-phenyl-1H-indazole-6-carboxylic acid (5-methyl-pyrazin-2-ylmethyl)-amide] | 7.44 | 6.54
15 | Cc1ccc(-c2cc(C(=O)N[C@@H](C)CO)cc3c2cnn3-c2ccccc2)nc1 [Compound 15, 4-(5-Methyl-pyridin-2-yl)-1-phenyl-1H-indazole-6-carboxylic acid ((S)-2-hydroxy-1-methyl-ethyl)-amide] | 6.19 | 5.34
16 | Cc1ccc(-n2ncc3c(-c4ccc(C)cn4)cc(C(=O)NCc4cnc(C)cn4)cc32)cc1 [Compound 16, 4-(5-Methyl-pyridin-2-yl)-1-p-tolyl-1H-indazole-6-carboxylic acid (5-methyl-pyrazin-2-ylmethyl)-amide] | 7.7 | 6.4
17 | Cc1ccc(-n2ncc3c(-c4ccc(C)cn4)cc(C(=O)N[C@@H](C)CO)cc32)cc1 [Compound 17, 4-(5-Methyl-pyridin-2-yl)-1-p-tolyl-1H-indazole-6-carboxylic acid ((S)-2-hydroxy-1-methyl-ethyl)-amide] | 7.38 | 4.97
18 | Cc1ccc(-c2cc(C(=O)NCc3cnc(C)cn3)cc3c2ccn3C(C)C)nc1 [Compound 26, 1-Isopropyl-4-(5-methyl-pyridin-2-yl)-1H-indole-6-carboxylic acid (5-methyl-pyrazin-2-ylmethyl)-amide] | 6.26 | 
19 | Cc1ccc(-c2cc(C(=O)N[C@@H](C)CO)cc3c2ccn3C(C)C)nc1 [Compound 27, 1-Isopropyl-4-(5-methyl-pyridin-2-yl)-1H-indole-6-carboxylic acid ((S)-2-hydroxy-1-methyl-ethyl)-amide] | 5.48 | 
20 | Cc1ccc(-c2cc(C(=O)NCc3cnc(C)cn3)cc3c2ncn3CC(C)C)nc1 [Compound 28, 3-Isobutyl-7-(5-methyl-pyridin-2-yl)-3H-benzoimidazole-5-carboxylic acid (5-methyl-pyrazin-2-ylmethyl)-amide] | 6.46 | 
21 | Cc1ccc(-c2cc(C(=O)N[C@@H](C)CO)cc3c2ncn3CC(C)C)nc1 [Compound 29, 3-Isobutyl-7-(5-methyl-pyridin-2-yl)-3H-benzoimidazole-5-carboxylic acid ((S)-2-hydroxy-1-methyl-ethyl)-amide] | 5.24 | 
